Data from patent US12258327B2, “5-membered heteroaryl-containing aminopyridine compounds as EGFR inhibitors” (YUHAN CORPORATION, priority 2021, dated 2025).
Where two headings read alike, the source gives them in different places.

Legend:
[1] = target: EGFR L858R/T790M/C797S (Homo sapiens, UniProt P00533, C797S/L858R/T790M); experiment: Biochemical EGFR kinase assay (Lance Ultra TR-FRET), triple mutant L858R/T790M/C797S
Procedure, shortened: (§1)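 Kinase activity is measured by TR-FRET phosphopeptide detection. Compounds span 0.003 μM to 10 μM; the 1 h reaction at room temperature is quenched with EDTA, then labelled antibody (2 nM) is incubated 60 min before reading.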

[2] = target: EGFR del19/C797S (Homo sapiens, UniProt P00533, C797S/DEL746-750); experiment: Biochemical EGFR kinase assay (Lance Ultra TR-FRET), double mutant del19/C797S
Procedure, shortened: as §1

[3] = target: EGFR del19/T790M/C797S (Homo sapiens, UniProt P00533, C797S/DEL746-750/T790M); experiment: Biochemical EGFR kinase assay (Lance Ultra TR-FRET), triple mutant del19/T790M/C797S
Procedure, shortened: as §1

[4] = target: EGFR wildtype (WT) (Homo sapiens, UniProt P00533); experiment: Biochemical EGFR kinase assay (Lance Ultra TR-FRET), wildtype
Procedure, shortened: as §1

[5] = target: EGFR L858R/C797S (Homo sapiens, UniProt P00533, C797S/L858R); experiment: Biochemical EGFR kinase assay (Lance Ultra TR-FRET), double mutant L858R/C797S
Procedure, shortened: as §1

[6] = IC50 L858R/T790M/C797S (nM) 100 μM ATP, 100 μM ATP
[7] = IC50 del19/C797S (nM) 100 μM ATP, 100 μM ATP
[8] = IC50 del19/T790M/C797S (nM) 100 μM ATP, 100 μM ATP
[9] = IC50 WT (nM) 100 μM ATP, 100 μM ATP
[10] = IC50 L858R/C797S (nM) 100 μM ATP, 100 μM ATP

Chain of EGFR wildtype (WT) (P00533 25-1210): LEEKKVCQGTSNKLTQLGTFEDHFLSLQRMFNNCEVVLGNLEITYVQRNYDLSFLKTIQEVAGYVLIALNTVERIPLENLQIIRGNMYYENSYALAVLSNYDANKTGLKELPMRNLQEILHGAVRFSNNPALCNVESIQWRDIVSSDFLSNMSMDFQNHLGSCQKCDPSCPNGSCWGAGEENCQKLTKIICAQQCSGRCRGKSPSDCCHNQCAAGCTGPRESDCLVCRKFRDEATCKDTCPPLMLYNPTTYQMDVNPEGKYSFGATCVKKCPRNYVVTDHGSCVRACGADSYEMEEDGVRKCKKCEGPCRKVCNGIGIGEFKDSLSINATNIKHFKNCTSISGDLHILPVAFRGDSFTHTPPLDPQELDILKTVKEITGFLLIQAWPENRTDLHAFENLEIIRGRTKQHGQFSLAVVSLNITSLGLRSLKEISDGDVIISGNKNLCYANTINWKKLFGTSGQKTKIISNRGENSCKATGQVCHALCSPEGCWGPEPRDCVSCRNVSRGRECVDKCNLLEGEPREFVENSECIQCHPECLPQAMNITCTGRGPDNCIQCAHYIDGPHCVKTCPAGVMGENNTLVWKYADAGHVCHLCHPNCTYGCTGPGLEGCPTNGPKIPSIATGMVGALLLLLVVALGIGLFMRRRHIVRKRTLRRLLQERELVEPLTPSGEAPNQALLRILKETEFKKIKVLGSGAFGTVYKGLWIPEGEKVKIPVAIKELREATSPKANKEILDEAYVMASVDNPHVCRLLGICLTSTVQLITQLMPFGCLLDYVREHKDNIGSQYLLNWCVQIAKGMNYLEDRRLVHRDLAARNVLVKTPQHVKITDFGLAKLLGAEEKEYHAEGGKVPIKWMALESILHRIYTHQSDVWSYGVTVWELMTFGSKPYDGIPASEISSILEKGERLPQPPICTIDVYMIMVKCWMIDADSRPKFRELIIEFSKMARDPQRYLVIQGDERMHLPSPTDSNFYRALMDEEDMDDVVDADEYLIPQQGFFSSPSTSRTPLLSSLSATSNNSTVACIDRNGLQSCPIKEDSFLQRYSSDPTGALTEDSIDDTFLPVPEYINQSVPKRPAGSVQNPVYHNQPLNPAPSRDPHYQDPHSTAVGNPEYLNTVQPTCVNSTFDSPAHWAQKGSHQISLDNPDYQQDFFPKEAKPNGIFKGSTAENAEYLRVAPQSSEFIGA
Chain of EGFR L858R/T790M/C797S (P00533 25-1210 T790M/C797S/L858R): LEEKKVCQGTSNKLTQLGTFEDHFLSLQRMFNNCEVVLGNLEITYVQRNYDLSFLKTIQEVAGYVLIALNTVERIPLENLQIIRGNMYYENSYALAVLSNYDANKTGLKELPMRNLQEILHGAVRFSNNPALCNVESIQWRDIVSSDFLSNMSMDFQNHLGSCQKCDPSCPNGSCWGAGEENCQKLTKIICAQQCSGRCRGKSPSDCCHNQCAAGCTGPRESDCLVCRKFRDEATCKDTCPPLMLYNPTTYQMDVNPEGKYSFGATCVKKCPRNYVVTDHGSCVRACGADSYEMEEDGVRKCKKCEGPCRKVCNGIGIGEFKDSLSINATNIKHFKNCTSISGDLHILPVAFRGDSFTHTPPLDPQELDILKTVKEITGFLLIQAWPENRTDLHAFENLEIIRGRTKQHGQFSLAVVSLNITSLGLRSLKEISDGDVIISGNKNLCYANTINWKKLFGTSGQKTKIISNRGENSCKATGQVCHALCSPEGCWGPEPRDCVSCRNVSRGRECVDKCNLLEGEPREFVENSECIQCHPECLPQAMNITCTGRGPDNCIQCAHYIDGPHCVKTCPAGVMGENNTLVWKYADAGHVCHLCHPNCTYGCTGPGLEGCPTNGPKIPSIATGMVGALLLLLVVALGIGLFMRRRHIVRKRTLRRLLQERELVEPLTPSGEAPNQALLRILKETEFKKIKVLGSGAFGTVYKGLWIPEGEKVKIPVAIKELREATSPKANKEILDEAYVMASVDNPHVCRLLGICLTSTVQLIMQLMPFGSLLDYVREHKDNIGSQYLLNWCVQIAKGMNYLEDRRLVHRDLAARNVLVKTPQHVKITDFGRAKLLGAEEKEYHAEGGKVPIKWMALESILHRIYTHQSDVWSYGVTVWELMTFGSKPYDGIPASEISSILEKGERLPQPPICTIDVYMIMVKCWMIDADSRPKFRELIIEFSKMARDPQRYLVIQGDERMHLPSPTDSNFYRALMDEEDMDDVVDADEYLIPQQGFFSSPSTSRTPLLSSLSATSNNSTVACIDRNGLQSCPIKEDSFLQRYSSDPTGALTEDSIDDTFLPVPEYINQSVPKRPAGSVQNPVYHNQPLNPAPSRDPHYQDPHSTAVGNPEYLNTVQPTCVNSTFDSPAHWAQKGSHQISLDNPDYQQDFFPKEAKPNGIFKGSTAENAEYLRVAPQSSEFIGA
Chain of EGFR del19/C797S (P00533 with tags, fused parts or gaps DEL746-750/C797S): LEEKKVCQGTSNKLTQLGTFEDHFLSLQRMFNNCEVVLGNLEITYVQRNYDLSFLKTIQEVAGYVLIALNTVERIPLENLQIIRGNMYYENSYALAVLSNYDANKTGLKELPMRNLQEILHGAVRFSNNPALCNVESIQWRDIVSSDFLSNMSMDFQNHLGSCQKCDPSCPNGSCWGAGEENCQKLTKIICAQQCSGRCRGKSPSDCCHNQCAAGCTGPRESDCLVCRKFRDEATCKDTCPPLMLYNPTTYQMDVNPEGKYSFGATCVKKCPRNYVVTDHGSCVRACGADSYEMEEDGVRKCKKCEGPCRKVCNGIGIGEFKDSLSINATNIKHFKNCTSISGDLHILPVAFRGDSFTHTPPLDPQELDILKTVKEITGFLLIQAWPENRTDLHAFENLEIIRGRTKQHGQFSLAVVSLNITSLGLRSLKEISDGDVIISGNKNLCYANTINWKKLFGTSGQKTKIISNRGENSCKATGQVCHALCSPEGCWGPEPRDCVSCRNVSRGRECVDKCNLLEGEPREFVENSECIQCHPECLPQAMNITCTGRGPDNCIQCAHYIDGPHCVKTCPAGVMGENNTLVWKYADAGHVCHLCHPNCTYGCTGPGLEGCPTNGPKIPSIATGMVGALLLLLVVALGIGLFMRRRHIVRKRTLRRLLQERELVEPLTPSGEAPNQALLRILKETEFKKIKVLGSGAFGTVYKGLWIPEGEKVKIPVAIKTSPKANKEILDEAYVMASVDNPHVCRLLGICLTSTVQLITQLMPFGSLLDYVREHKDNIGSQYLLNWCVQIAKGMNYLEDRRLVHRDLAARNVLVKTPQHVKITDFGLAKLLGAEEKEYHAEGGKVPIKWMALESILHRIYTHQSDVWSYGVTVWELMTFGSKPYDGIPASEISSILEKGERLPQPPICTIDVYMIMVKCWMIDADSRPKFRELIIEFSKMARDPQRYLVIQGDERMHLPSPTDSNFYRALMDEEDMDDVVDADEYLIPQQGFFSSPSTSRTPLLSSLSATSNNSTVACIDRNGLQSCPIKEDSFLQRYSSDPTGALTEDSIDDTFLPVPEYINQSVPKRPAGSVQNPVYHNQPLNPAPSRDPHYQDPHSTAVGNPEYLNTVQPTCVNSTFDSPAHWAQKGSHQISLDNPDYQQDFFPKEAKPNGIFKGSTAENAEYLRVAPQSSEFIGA
Chain of EGFR L858R/C797S (P00533 25-1210 C797S/L858R): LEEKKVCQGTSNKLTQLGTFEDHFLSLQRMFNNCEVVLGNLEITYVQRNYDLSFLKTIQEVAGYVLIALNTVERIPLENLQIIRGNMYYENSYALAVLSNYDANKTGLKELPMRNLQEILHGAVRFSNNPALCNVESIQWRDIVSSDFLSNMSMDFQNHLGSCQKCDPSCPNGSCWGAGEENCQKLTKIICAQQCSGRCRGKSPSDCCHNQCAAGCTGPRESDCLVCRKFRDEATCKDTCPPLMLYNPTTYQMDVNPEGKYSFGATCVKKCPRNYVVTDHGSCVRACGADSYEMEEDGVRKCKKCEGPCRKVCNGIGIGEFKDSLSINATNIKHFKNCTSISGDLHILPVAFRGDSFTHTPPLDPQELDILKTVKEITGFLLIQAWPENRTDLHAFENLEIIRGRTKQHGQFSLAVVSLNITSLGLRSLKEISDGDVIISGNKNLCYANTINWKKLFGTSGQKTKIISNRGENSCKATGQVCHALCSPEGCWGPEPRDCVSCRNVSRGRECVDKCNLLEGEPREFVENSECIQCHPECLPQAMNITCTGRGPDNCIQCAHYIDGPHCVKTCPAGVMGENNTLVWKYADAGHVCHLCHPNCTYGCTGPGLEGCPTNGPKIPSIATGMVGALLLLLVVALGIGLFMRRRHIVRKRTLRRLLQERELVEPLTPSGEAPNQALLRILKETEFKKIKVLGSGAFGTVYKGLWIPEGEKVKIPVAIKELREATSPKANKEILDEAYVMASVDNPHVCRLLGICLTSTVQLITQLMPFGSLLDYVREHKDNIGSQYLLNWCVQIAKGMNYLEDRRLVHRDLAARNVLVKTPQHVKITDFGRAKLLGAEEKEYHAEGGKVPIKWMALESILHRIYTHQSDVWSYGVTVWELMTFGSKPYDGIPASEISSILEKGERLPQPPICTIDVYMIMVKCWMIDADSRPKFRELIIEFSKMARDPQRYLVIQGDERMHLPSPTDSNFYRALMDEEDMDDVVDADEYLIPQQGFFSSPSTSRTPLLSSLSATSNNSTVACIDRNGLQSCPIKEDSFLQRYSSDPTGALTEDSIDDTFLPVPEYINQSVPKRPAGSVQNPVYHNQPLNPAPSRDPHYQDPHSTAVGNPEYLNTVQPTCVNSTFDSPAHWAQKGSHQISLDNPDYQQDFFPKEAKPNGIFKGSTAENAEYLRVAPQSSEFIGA

IC50 [1, 6] [nM]	IC50 ([1]; Km ATP, read-out: IC50 L858R/T790M/C797S (nM) Km ATP) [nM]	IC50 [2, 7] [nM]	IC50 ([2]; Km ATP, read-out: IC50 del19/C797S (nM) Km ATP) [nM]	IC50 [3, 8] [nM]	IC50 ([3]; Km ATP, read-out: IC50 del19/T790M/C797S (nM) Km ATP) [nM]	IC50 [4, 9] [nM]	IC50 ([4]; Km ATP, read-out: IC50 WT (nM) Km ATP) [nM]	IC50 [5, 10] [nM]	IC50 ([5]; Km ATP, read-out: IC50 L858R/C797S (nM) Km ATP) [nM]	SMILES
0.3	0.1	0.5	0.1	0.3	0.3	370	0.6	0.7	0.1	O=S(=O)(C1CC1)n1cc(-c2nccc(Nc3cc(N[C@H]4CC[C@@H](CO)CC4)c(-c4ccn(C5COC5)n4)cn3)n2)cn1 [Example 282, ((1s,4s)-4-((2-((2-(1-(Cyclopropylsulfonyl)-1H-pyrazol-4-yl)pyrimidin-4-yl)amino)-5-(1-(oxetan-3-yl)-1H-pyrazol-3-yl)pyridin-4-yl)amino)cyclohexyl)methanol]
2.3	–	0.8	–	1	–	> 10000	–	8.7	–	CC(C)(O)c1nc(-c2cnc(Nc3ccnc(-c4cnn(S(=O)(=O)C5CC5)c4)n3)cc2N[C@H]2CCC[C@H](O)C2)cs1 [Example 91, (1S,3S)-3-((2-((2-(1-(Cyclopropylsulfonyl)-1H-pyrazol-4-yl)pyrimidin-4-yl)amino)-5-(2-(2-hydroxypropan-2-yl)thiazol-4-yl)pyridin-4-yl)amino) cyclohexan-1-ol]
